Tests used:
[1] = LNP size and polydispersity index (PDI) by dynamic light scattering; format: physicochemical; details: for Size: in nm (unit assumed)
Summary of the method: (§1)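 Dynamic light scattering and zeta potential measurements were run on PBS-dialyzed LNPs, which had been formed by microfluidic mixing at 12 ml/min with final lipid at 1.5 mM to 6 mM. RNA content and percent encapsulation were determined by Ribogreen with and without Triton X-100.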

[2] = LNP zeta potential (Zetasizer); format: physicochemical
Summary of the method: as §1

[3] = RNA encapsulation efficacy by Quant-IT Ribogreen kit; format: physicochemical; details: for Encapsulation Efficiency %: LNP with cirRNA (SEQ ID NO: 1); for Encapsulation Efficiency: LNP with mRNA (SEQ ID NO: 2)
Summary of the method: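 Ribogreen read-out: encapsulation = 100% − (signal of intact RNA-LNPs / signal with Triton X-100). Particles: ionizable lipid:DSPC:Chol:DMG-PEG2000 50:10:38.5:1.5, ionizable lipid:ribonucleotide 15 or 6, final lipid 1.5–6 mM, PBS-dialyzed.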

Hep G2 cells [4] = experiment: In vitro expression of firefly-luciferase, Hep G2; format: cell-based
Summary of the method: (§2)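 Both cell lines receive RNA-LNPs carrying firefly-luciferase RNA at 100 ng/mL. Lysis follows washing at 72 h post-transfection, and luciferase activity is then quantified on a luminometer using a commercial luciferase assay reagent.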

RAW 264.7 cells [5] = experiment: In vitro expression of firefly-luciferase, RAW 264.7; format: cell-based
Summary of the method: as §2

Hep G2 cells [6] = experiment: In vitro toxicity (CellTiter-Glo cell viability), Hep G2; format: cell-based;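 further: percent of untreated cells luminescence signal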
Summary of the method: (§3)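 Luminescent ATP read-out (CellTiter-Glo) gives the viability value, taken 72 h after cells were exposed to RNA-loaded lipid nanoparticles at 1 μg/mL.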

RAW 264.7 cells [7] = experiment: In vitro toxicity (CellTiter-Glo cell viability), RAW 264.7; format: cell-based;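 further: percent of untreated cells luminescence signal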
Summary of the method: as §3

BALB/C mice [8] = experiment: In vivo expression, whole-body luminescence (IVIS)
Description: 6-8 week old, female BALB/C mice were injected with 0.05 mg*kg-1 of RNA-LNPs encoding for firefly-luciferase by intravenous injection. At 6 hours post injection, animals were intraperitoneally injected with 15 mg/ml of Luciferin substrate and whole-body luminescence was determined by a bioluminescent in vivo imaging system (IVIS).

MCP-I = MCP-I cytokine elevation in serum; format: in vivo; details: cirRNA (SEQ ID NO: 1) LNPs, mice
Description: 6-8 week old, female BALB/C mice were injected with 0.5 mg*kg-1 of RNA LNPs by intravenous injection. At 2 and 24 hours post injection, animals were bled and sera concentrations of MCP-I were determined by an immunoassay (Luminex).

[9] = tested on: Alanine Aminotransferase (ALT); experiment: Liver enzyme elevation in serum, ALT; format: in vivo; details: cirRNA (SEQ ID NO: 1) LNPs, BALB/C mice, intravenous 0.5 MPK
Description: (§4) 6-8 week old, female BALB/C mice were injected with 0.5 mg*kg-1 of RNA LNPs by intravenous injection. At 2 and 24 hours post injection, animals were bled and sera concentrations of Alanine Aminotransferase (ALT) and Aspartate Aminotransferase (AST) were determined by a blood chemistry analyzer.

[10] = tested on: Aspartate Aminotransferase (AST); experiment: Liver enzyme elevation in serum, AST; format: in vivo; details: cirRNA (SEQ ID NO: 1) LNPs, BALB/C mice, intravenous 0.5 MPK
Description: as §4

BALB/C mice [11] = experiment: Local tolerance determination by footpad injection; format: in vivo; details: cirRNA (SEQ ID NO: 1) LNP, 0.175 mg*kg-1 subcutaneous into the footpad, 24 hours post minus prior
Description: 6-8 week old, female BALB/C mice were injected with 0.175 mg*kg-1 RNA LNPs by subcutaneous injection into the footpad. Prior to, and 24 hours post injections, injected footpad thickness was determined by a caliper.

[12] = cirRNA (SEQ ID NO: 1) LNPs, firefly-luciferase luminescence, Hep G2 cells
[13] = mRNA (SEQ ID NO: 2) LNP, 100 ng/mL, 72 hours post transfection, luciferase activity
[14] = cirRNA (SEQ ID NO: 1) LNPs, firefly-luciferase luminescence, RAW 264.7 cells
[15] = cirRNA (SEQ ID NO: 1) LNPs, Hep G2 cells
[16] = mRNA (SEQ ID NO: 2) LNP, 1 μg/mL, 72 hours post transfection
[17] = cirRNA (SEQ ID NO: 1) LNPs, RAW 264.7 cells
[18] = cirRNA (SEQ ID NO: 1) LNPs, BALB/C mice
[19] = mRNA (SEQ ID NO: 2) LNP, 0.05 mg*kg-1 intravenous, 6 hours post injection

Row | SMILES | PDI ([1]; LNP with cirRNA (SEQ ID NO: 1)) | Size ([1]; LNP with cirRNA (SEQ ID NO: 1)) | PDI ([1]; LNP with mRNA (SEQ ID NO: 2)) | Size ([1]; LNP with mRNA (SEQ ID NO: 2)) | Zeta (mV) ([2]; LNP with cirRNA (SEQ ID NO: 1)) | Zeta (mV) ([2]; LNP with mRNA (SEQ ID NO: 2)) | Encapsulation Efficiency % [3] [%] | Encapsulation Efficiency [3] [%] | In vitro Expression HepG2 (Hep G2 cells [4]; [12]) | In vitro Expression HepG2 (Hep G2 cells [4]; [13]) | In vitro Expression RAW (RAW 264.7 cells [5]; [14]) | In vitro Expression RAW (RAW 264.7 cells [5]; [13]) | In vitro Viability HepG2 (Hep G2 cells [6]; [15]) [%] | In vitro Viability HepG2 (Hep G2 cells [6]; [16]) [%] | In vitro Viability RAW (RAW 264.7 cells [7]; [17]) [%] | In vitro Viability RAW (RAW 264.7 cells [7]; [16]) [%] | In vivo Expression (Whole Body) (BALB/C mice [8]; [18]) | In vivo Expression (Whole Body) (BALB/C mice [8]; [19]) | MCP-I in Sera 2 hours After 0.5 MPK Injection (MCP-I) [pg/mL] | MCP-I in Sera 24 hours After 0.5 MPK Injection (MCP-I) [pg/mL] | also measured
1 | CCCCCCCCCC(=O)OCCCCCCCN(CCCCCCCCOC(=O)C(CCCCCC)CCCCCCCC)CCOC(=O)NCCN1CCCC1 (stereo not drawn) [Lipid 195] | 0.2474 | 94.75 | 0.1254 | 114.3 | 6.123 | 16.37 | 94 | 75.44 | 1.62E+05 | 1.23E+07 | 9.03E+03 | 1.67E+07 | 103 | 116 | 96 | 77 | 3.91E+07 | 1.63E+08 | 2643.00 | 78.52 | ALT in Sera (IU/L) 2 hours After 0.5 MPK Injection [9]: 109.00 IU/L; ALT in Sera (IU/L) 24 hours After 0.5 MPK Injection [9]: 35.00 IU/L; AST in Sera (IU/L) 2 hours After 0.5 MPK Injection [10]: 264.00 IU/L; AST in Sera (IU/L) 24 hours After 0.5 MPK Injection [10]: 84.67 IU/L; Footpad Thickness (24 h−0 h, mm) (BALB/C mice [11]): 0.56 mm
2 | CCCCCCCCCC(=O)OCCCCCCCN(CCCCCCCCOC(=O)C(CCCCCC)CCCCCCCC)CCOC(=O)NCCN1CCCCC1 (stereo not drawn) [Lipid 196] | 0.0364 | 89.57 | 0.1806 | 117.5 | 0.4256 | −2.076 | 93 | 91.87 | 5.54E+04 | 1.58E+06 | 1.22E+04 | 2.31E+06 | 103 | 91 | 91 | 110 | 1.86E+07 | 1.41E+08 | 489.33 | 197.30 | ALT in Sera (IU/L) 2 hours After 0.5 MPK Injection [9]: 80.33 IU/L; ALT in Sera (IU/L) 24 hours After 0.5 MPK Injection [9]: 93.00 IU/L; AST in Sera (IU/L) 2 hours After 0.5 MPK Injection [10]: 202.33 IU/L; AST in Sera (IU/L) 24 hours After 0.5 MPK Injection [10]: 180.67 IU/L; Footpad Thickness (24 h−0 h, mm) (BALB/C mice [11]): 0.44 mm
3 | CCCCCCCCCC(=O)OCCCCCCCN(CCCCCCCCOC(=O)C(CCCCCC)CCCCCCCC)CCOC(=O)NCCN(C)C (stereo not drawn) [Lipid 197] | 0.14 | 82.64 | 0.07142 | 113.7 | 5.5 | 13.59 | 96 | 79.87 | 6.41E+05 | 2.51E+07 | 1.87E+04 | 1.19E+07 | 88 | 116 | 0 | 0 | 3.04E+07 | 4.89E+08 | 1958.67 | 122.47 | ALT in Sera (IU/L) 2 hours After 0.5 MPK Injection [9]: 106.67 IU/L; ALT in Sera (IU/L) 24 hours After 0.5 MPK Injection [9]: 171.00 IU/L; AST in Sera (IU/L) 2 hours After 0.5 MPK Injection [10]: 215.67 IU/L; AST in Sera (IU/L) 24 hours After 0.5 MPK Injection [10]: 237.67 IU/L; Footpad Thickness (24 h−0 h, mm) (BALB/C mice [11]): 0.08 mm

Reference: US12691070B2, “Cationic lipids and preparation method thereof” (RiboX Therapeutics HK Limited, priority 2023, dated 2026)
